Key:
Assay in all cases: X-ray crystallography, co-crystallization
SEPT9GC = biological target: T1, SEPT9GC (Homo sapiens, UniProt Q9UHD8); conditions: about 2.0 Å; Mg2+; nucleotide-binding site at G interface
T1 construct: gene SEPTIN9; G domain plus C-terminal region, residues 279-568, pET-28a(+) His-tag, E. coli Rosetta (DE3); monomer about 38 kDa; purified nucleotide-free
T1 sequence (Q9UHD8 279-568): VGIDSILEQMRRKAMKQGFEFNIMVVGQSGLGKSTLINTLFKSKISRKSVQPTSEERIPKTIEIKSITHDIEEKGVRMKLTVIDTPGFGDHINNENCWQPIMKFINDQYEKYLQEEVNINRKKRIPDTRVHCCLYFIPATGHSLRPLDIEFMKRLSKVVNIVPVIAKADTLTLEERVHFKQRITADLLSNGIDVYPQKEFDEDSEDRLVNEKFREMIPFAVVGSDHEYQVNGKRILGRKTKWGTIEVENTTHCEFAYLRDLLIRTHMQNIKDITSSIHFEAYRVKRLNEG

SEPT3α0G = biological target: T2, SEPT3α0G (Homo sapiens, UniProt Q9UH03); conditions: 1.83 Å; Mg2+ in active site; nucleotide-binding site at G interface
T2 construct: gene SEPTIN3; G domain plus polybasic helix α0, residues 43-330; expressed and purified as in Macedo et al. 2013; monomer in solution; homotypic G-interface dimers in crystal
T2 sequence (Q9UH03 43-330): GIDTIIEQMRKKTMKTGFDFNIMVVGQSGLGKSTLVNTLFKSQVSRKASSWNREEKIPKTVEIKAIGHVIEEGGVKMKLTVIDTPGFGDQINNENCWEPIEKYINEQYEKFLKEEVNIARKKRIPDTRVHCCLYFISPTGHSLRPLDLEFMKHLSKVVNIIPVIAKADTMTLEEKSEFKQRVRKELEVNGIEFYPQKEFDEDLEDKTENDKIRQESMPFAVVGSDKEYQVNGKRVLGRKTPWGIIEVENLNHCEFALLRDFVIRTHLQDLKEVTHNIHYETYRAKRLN

SEPT12G = biological target: T3, SEPT12G (Homo sapiens, UniProt Q8IYM1); conditions: Mg2+, nucleotide-binding site
T3 construct: gene SEPTIN12; G domain, residues 47-320, pET-28a(+) His-tag, E. coli Rosetta (DE3); monomer about 32 kDa
T3 sequence (Q8IYM1 47-320): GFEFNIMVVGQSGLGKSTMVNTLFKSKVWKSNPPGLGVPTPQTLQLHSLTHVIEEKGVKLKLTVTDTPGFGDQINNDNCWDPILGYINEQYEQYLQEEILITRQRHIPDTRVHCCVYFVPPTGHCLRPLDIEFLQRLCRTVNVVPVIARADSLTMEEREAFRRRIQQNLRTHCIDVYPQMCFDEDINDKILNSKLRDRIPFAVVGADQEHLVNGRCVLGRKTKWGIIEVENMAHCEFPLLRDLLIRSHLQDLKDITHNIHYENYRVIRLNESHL

SEPT3G = biological target: T4, SEPT3G (Homo sapiens, UniProt Q9UH03); conditions: 1.86 Å; Mg2+; nucleotide-binding site; b26 labels 4z51 as GTPγS but methods, Table 2 and results say GMPPNP
T4 construct: gene SEPTIN3; G domain without helix α0, residues 59-330; expressed and purified as in Macedo et al. 2013; monomer in solution; homotypic G-interface dimers in crystal
T4 sequence (Q9UH03 59-330): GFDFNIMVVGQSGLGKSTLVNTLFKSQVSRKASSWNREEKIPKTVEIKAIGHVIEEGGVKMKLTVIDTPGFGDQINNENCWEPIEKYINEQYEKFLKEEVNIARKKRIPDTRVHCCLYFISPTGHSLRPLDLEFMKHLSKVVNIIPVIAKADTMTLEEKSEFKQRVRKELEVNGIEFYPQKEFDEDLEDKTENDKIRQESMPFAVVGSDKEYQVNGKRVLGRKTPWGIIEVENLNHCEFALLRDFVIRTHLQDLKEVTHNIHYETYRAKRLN

| Structure (SMILES) | X-ray crystallography, co-crystallization (SEPT9GC) | X-ray crystallography, co-crystallization (SEPT3α0G) | X-ray crystallography, co-crystallization (SEPT12G; 2.19 Å, small quantity of GDP also co-purified) | X-ray crystallography, co-crystallization (SEPT12G; 1.86 Å (P1, 6mq9) and 2.12 Å (C2221, 6mqb)) | X-ray crystallography, co-crystallization (SEPT3G) |
| --- | --- | --- | --- | --- | --- |
| Nc1nc2c(ncn2[C@@H]2O[C@H](COP(=O)(O)OP(=O)(O)O)[C@@H](O)[C@H]2O)c(=O)[nH]1 [GDP] | The structure of SEPT9GC–GDP (PDB entry 5cyo) has a G-interface dimer in the asymmetric unit | structures of the G domain of SEPT3 complexed with either GDP or the GTP mimetic GMPPNP | In SEPT12G–GDP (PDB entry 6mqk) the metal ion is canonically coordinated by Thr89, Ser63 |  |  |
| Nc1nc2c(ncn2[C@@H]2O[C@H](COP(=O)(O)OP(=O)(O)NP(=O)(O)O)[C@@H](O)[C@H]2O)c(=O)[nH]1 [GMPPNP] |  |  |  | Two structures were obtained in the presence of GMPPNP | The SEPT3G–GMPPNP complex (PDB entry 4z51) has only one monomer per asymmetric unit |

Reference: paper PMC7201284, “A complete compendium of crystal structures for the human SEPT3 subgroup reveals functional plasticity at a specific septin interface” (IUCrJ, 2020)
